Organism: Rattus norvegicus
Assay: Open TG-GATES - Regimen: Single
Type: toxicity, organism-based, Sprague-Dawley
Set-up: regimen Single, gender Male, age 6 weeks
Conditions: in vivo, po, 1000 mg/kg, route gavage, dose level Middle; for APTT / Bas / Eos / Fbg / Hb / Ht / Lym / MCH / MCHC / MCV / Mono / Neu / PT / Plat / RBC / Ret / WBC: tissue Blood; for KIDNEY_L / KIDNEY_R / KIDNEY_TOTAL: tissue Kidney; for LIVER: tissue Liver; for A/G / ALP / ALT / AST / BUN / CRE / Ca / Cl / DBIL / GLC / IP / K / LDH / Na / PL / RALB / TBIL / TC / TG / TP / gamma-GTP: tissue Plasma

SMILES: CCOc1ccc(NC(=O)CC(C)O)cc1 (configuration not stated) [BUCETIN]
- TERMINAL_BW (3 h): 211.2 g
- APTT (3 h): 14.7 s
- Bas (3 h): 0%
- Eos (3 h): 1%
- Fbg (3 h): 303 mg/dL
- Hb (3 h): 13 g/dL
- Ht (3 h): 38.6%
- Lym (3 h): 78.4%
- MCH (3 h): 20.6 pg
- MCHC (3 h): 33.7%
- MCV (3 h): 61.2 fL
- Mono (3 h): 2%
- Neu (3 h): 18.2%
- PT (3 h): 13.5 s
- Plat (3 h): 123 x10_4/uL
- RBC (3 h): 630.8 x10_4/ul
- Ret (3 h): 7.9%
- WBC (3 h): 70.9 x10_2/uL
- KIDNEY_L (3 h): 0.9 g
- KIDNEY_R (3 h): 1 g
- KIDNEY_TOTAL (3 h): 1.9 g
- LIVER (3 h): 9.1 g
- A/G (3 h): 0.9
- ALP (3 h): 1363.2 IU/L
- ALT (3 h): 33 IU/L
- AST (3 h): 65.6 IU/L
- BUN (3 h): 8.4 mg/dL
- CRE (3 h): 0.1 mg/dL
- Ca (3 h): 10.5 mg/dL
- Cl (3 h): 104.6 meq/L
- DBIL (3 h): 0.03 mg/dL
- GLC (3 h): 182.2 mg/dL
- IP (3 h): 9.1 mg/dL
- K (3 h): 4.2 meq/L
- LDH (3 h): 66.6 IU/L
- Na (3 h): 141.4 meq/L
- PL (3 h): 137.4 mg/dL
- RALB (3 h): 2.5 g/dL
- TBIL (3 h): 0.05 mg/dL
- TC (3 h): 73.6 mg/dL
- TG (3 h): 51.6 mg/dL
- TP (3 h): 5.2 g/dL
- gamma-GTP (3 h): 1.4 IU/L
- TERMINAL_BW (6 h): 208.9 g
- APTT (6 h): 19.8 s
- Bas (6 h): 0%
- Eos (6 h): 1%
- Fbg (6 h): 317 mg/dL
- Hb (6 h): 13.3 g/dL
- Ht (6 h): 39.5%
- Lym (6 h): 77%
- MCH (6 h): 20.9 pg
- MCHC (6 h): 33.6%
- MCV (6 h): 62.1 fL
- Mono (6 h): 2.6%
- Neu (6 h): 19%
- PT (6 h): 13.7 s
- Plat (6 h): 118.7 x10_4/uL
- RBC (6 h): 636.6 x10_4/ul
- Ret (6 h): 7.8%
- WBC (6 h): 61.8 x10_2/uL
- KIDNEY_L (6 h): 0.9 g
- KIDNEY_R (6 h): 0.9 g
- KIDNEY_TOTAL (6 h): 1.8 g
- LIVER (6 h): 8.3 g
- A/G (6 h): 0.9
- ALP (6 h): 1231.6 IU/L
- ALT (6 h): 29 IU/L
- AST (6 h): 64.4 IU/L
- BUN (6 h): 8.6 mg/dL
- CRE (6 h): 0.2 mg/dL
- Ca (6 h): 10.7 mg/dL
- Cl (6 h): 105.4 meq/L
- DBIL (6 h): 0.036 mg/dL
- GLC (6 h): 186.8 mg/dL
- IP (6 h): 10.3 mg/dL
- K (6 h): 4.2 meq/L
- LDH (6 h): 57.8 IU/L
- Na (6 h): 142 meq/L
- PL (6 h): 139 mg/dL
- RALB (6 h): 2.6 g/dL
- TBIL (6 h): 0.062 mg/dL
- TC (6 h): 82.2 mg/dL
- TG (6 h): 28.4 mg/dL
- TP (6 h): 5.5 g/dL
- gamma-GTP (6 h): 1 IU/L
- TERMINAL_BW (9 h): 204.6 g
- APTT (9 h): 16.1 s
- Bas (9 h): 0%
- Eos (9 h): 0.6%
- Fbg (9 h): 311.6 mg/dL
- Hb (9 h): 13.6 g/dL
- Ht (9 h): 40.3%
- Lym (9 h): 78.8%
- MCH (9 h): 21.1 pg
- MCHC (9 h): 33.8%
- MCV (9 h): 62.4 fL
- Mono (9 h): 2.2%
- Neu (9 h): 17.8%
- PT (9 h): 14.2 s
- Plat (9 h): 125.3 x10_4/uL
- RBC (9 h): 646.4 x10_4/ul
- Ret (9 h): 8.3%
- WBC (9 h): 48.8 x10_2/uL
- KIDNEY_L (9 h): 0.9 g
- KIDNEY_R (9 h): 0.9 g
- KIDNEY_TOTAL (9 h): 1.8 g
- LIVER (9 h): 8.2 g
- A/G (9 h): 0.9
- ALP (9 h): 1308.4 IU/L
- ALT (9 h): 29.6 IU/L
- AST (9 h): 62.6 IU/L
- BUN (9 h): 7.6 mg/dL
- CRE (9 h): 0.1 mg/dL
- Ca (9 h): 10.6 mg/dL
- Cl (9 h): 106 meq/L
- DBIL (9 h): 0.04 mg/dL
- GLC (9 h): 196.6 mg/dL
- IP (9 h): 9.8 mg/dL
- K (9 h): 4 meq/L
- LDH (9 h): 56.2 IU/L
- Na (9 h): 142.4 meq/L
- PL (9 h): 130.6 mg/dL
- RALB (9 h): 2.6 g/dL
- TBIL (9 h): 0.054 mg/dL
- TC (9 h): 71.6 mg/dL
- TG (9 h): 26.2 mg/dL
- TP (9 h): 5.5 g/dL
- gamma-GTP (9 h): 1 IU/L
- TERMINAL_BW (24 h): 208.1 g
- APTT (24 h): 23.5 s
- Bas (24 h): 0%
- Eos (24 h): 1%
- Fbg (24 h): 268.6 mg/dL
- Hb (24 h): 13.4 g/dL
- Ht (24 h): 40.5%
- Lym (24 h): 77.6%
- MCH (24 h): 20.7 pg
- MCHC (24 h): 33.2%
- MCV (24 h): 62.3 fL
- Mono (24 h): 3%
- Neu (24 h): 18%
- PT (24 h): 15.1 s
- Plat (24 h): 125 x10_4/uL
- RBC (24 h): 650.2 x10_4/ul
- Ret (24 h): 7.5%
- WBC (24 h): 77.3 x10_2/uL
- KIDNEY_L (24 h): 1 g
- KIDNEY_R (24 h): 1 g
- KIDNEY_TOTAL (24 h): 1.9 g
- LIVER (24 h): 8.9 g
- A/G (24 h): 0.9
- ALP (24 h): 1549 IU/L
- ALT (24 h): 48 IU/L
- AST (24 h): 92.2 IU/L
- BUN (24 h): 16 mg/dL
- CRE (24 h): 0.2 mg/dL
- Ca (24 h): 10.8 mg/dL
- Cl (24 h): 106.8 meq/L
- DBIL (24 h): 0.03 mg/dL
- GLC (24 h): 169.6 mg/dL
- IP (24 h): 8.1 mg/dL
- K (24 h): 4.2 meq/L
- LDH (24 h): 93.8 IU/L
- Na (24 h): 144.2 meq/L
- PL (24 h): 154 mg/dL
- RALB (24 h): 2.6 g/dL
- TBIL (24 h): 0.07 mg/dL
- TC (24 h): 86.4 mg/dL
- TG (24 h): 66.2 mg/dL
- TP (24 h): 5.6 g/dL
- gamma-GTP (24 h): 1 IU/L

— ChEMBL document CHEMBL3885861, “Open TG-GATES”
